Experimental data taken from patent publication US8426169B2, “Glycosylate derivatives of mithramycin, method of preparation and uses thereof” (University of Kentucky Research Foundation, priority 2007, dated 2013).
Read-outs that look alike come from different tables or passages of the source.

Tests used:
Type in all cases: cell-based
MDA-MB-231 (breast) = assay: SRB colorimetric cell growth and viability assay, MDA-MB-231; conditions: 48 hours of exposure, read-out: GI50, concentration at which the compound assayed inhibits 50% of the cell growth compared to non-treated cells
A549 (lung) = assay: SRB colorimetric cell growth and viability assay, A549; conditions: 48 hours of exposure, read-out: GI50, concentration at which the compound assayed inhibits 50% of the cell growth compared to non-treated cells
HT29 (colon) = assay: SRB colorimetric cell growth and viability assay, HT29; conditions: read-out: GI50, concentration at which the compound assayed inhibits 50% of the cell growth compared to non-treated cells
[1] = Homo sapiens, HT-29, 48 hours of exposure

Row | Molecule | GI50 (MDA-MB-231 (breast)) [nM] | GI50 (A549 (lung)) [nM] | GI50 (HT29 (colon); 48 hours of exposure) [nM] | GI50 (MDA-MB-231 (breast); Homo sapiens) [nM] | GI50 (A549 (lung); Homo sapiens) [nM] | GI50 (HT29 (colon); [1]) [nM]
1 | 6-dediolivosyl-6-β-D-amicetosyl-deoliosyl-3C-β-D-olivosyl-MTM [formula XXI] | 470 | 440 | 940 | – | – | –
2 | 6-dediolivosyl-6-β-D-amicetosyl-deoliosyl-demycarosyl-3C-β-D-boivinosyl-MTM [formula XVIII] | 400 | 750 | 2010 | – | – | –
3 | 6-dediolivosyl-6-β-D-amicetosyl-deoliosyl-demycarosyl-3C-β-D-olivosyl-3D-β-D-digitoxosyl-MTM [formula XX] | > 10000 | > 10000 | > 10000 | – | – | –
4 | CO[C@H](C(=O)[C@@H](O)[C@@H](C)O)[C@@H]1Cc2cc3cc(O[C@H]4C[C@@H](O[C@H]5C[C@@H](O)[C@H](O)C(C)O5)[C@H](O)C(C)O4)c(C)c(O)c3c(O)c2C(=O)[C@H]1O[C@H]1C[C@@H](O[C@H]2C[C@H](O[C@H]3C[C@](C)(O)[C@H](O)C(C)O3)[C@@H](O)C(C)O2)[C@H](O)C(C)O1 (stereo partly drawn) [formula IX, deoliosyl-3C-α-L-digitoxosyl-MTM] | – | – | – | 1940 | 2670 | 3870
5 | CO[C@H](C(=O)[C@@H](O)[C@@H](C)O)[C@@H]1Cc2cc3cc(O[C@H]4C[C@@H](O[C@H]5C[C@@H](O)[C@H](O)C(C)O5)[C@H](O)C(C)O4)c(C)c(O)c3c(O)c2C(=O)[C@H]1O[C@H]1C[C@@H](O[C@H]2C[C@@H](O[C@H]3C[C@@H](O)[C@H](O)C(C)O3)[C@@H](O)C(C)O2)[C@H](O)C(C)O1 (stereo partly drawn) [formula VIII] | – | – | – | 230 | 190 | 270
6 | CO[C@H](C(=O)[C@@H](O)[C@@H](C)O)[C@@H]1Cc2cc3cc(O[C@H]4C[C@@H](O[C@H]5C[C@@H](O)[C@H](O)C(C)O5)[C@H](O)C(C)O4)c(C)c(O)c3c(O)c2C(=O)[C@H]1O[C@H]1C[C@@H](O[C@H]2C[C@](C)(O)[C@H](O)C(C)O2)[C@H](O)C(C)O1 (stereo partly drawn) [formula X, deoliosyl-3C-β-D-mycarosyl-MTM] | – | – | – | 370 | 480 | 930
7 | CO[C@H](C(=O)[C@@H](O)[C@@H](C)O)[C@@H]1Cc2cc3cc(O[C@H]4C[C@@H](O)[C@H](O)C(C)O4)c(C)c(O)c3c(O)c2C(=O)[C@H]1O[C@H]1C[C@@H](O[C@H]2C[C@@H](O[C@H]3C[C@](C)(O)[C@H](O)C(C)O3)[C@@H](O)C(C)O2)[C@H](O)C(C)O1 (stereo partly drawn) [formula XI, 3A-deolivosyl-MTM] | – | – | – | 450 | 750 | 710
8 | CO[C@H](C(=O)[C@@H](O)[C@@H](C)O)[C@@H]1Cc2cc3cc(O[C@H]4C[C@@H](O[C@H]5C[C@@H](O)[C@H](O)C(C)O5)[C@H](O)C(C)O4)c(C)c(O)c3c(O)c2C(=O)[C@H]1O[C@H]1C[C@@H](O[C@H]2C[C@@H](O)[C@@H](O)C(C)O2)[C@H](O)C(C)O1 (stereo partly drawn) [formula XII, demycarosyl-MTM] | – | – | – | 1280 | 1810 | > 10000
9 | CO[C@H](C(=O)[C@@H](O)[C@@H](C)O)[C@@H]1Cc2cc3cc(O[C@H]4CC[C@H](O)C(C)O4)c(C)c(O)c3c(O)c2C(=O)[C@H]1O[C@H]1C[C@@H](O[C@H]2C[C@@H](O[C@H]3C[C@](C)(O)[C@H](O)C(C)O3)[C@@H](O)C(C)O2)[C@H](O)C(C)O1 (stereo partly drawn) [formula XIII] | – | – | – | 1380 | 1490 | 3190
10 | deoliosyl-demycarosyl-3C-β-D-boivinosyl-MTM [formula XVII] | 3720 | > 10000 | > 10000 | – | – | –
11 | deoliosyl-demycarosyl-3C-β-D-olivosyl-3D-β-D-digitoxosyl-MTM [formula XIX] | 690 | 910 | 5980 | – | – | –
